Where “and” joins values, the source holds several entries; their conditions need not be identical. Equal values may be shown once.
Assays:
SfurOBP1 = SfurOBP1 (Sogatella furcifera, UniProt V5T8N5); test: biochemical; assay type: binding; details: for Fluorescence competitive binding assay, fluorescence intensity: OBP1, three replicate columns
Method in brief: (§1)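 1-NPN displacement assay with odorant competitor at 2–20 µM; protein and probe both 2.0 µM at pH 7.4. Ki is calculated from IC50 using the protein/1-NPN dissociation constant.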

SfurOBP2 = SfurOBP2 (Sogatella furcifera, UniProt V5T759); test: biochemical; assay type: binding
Method in brief: as §1

SfurOBP11 = SfurOBP11 (Sogatella furcifera, UniProt V5T6E3); test: biochemical; assay type: binding
Method in brief: as §1

SfurOBP3 = SfurOBP3 (Sogatella furcifera, UniProt V5T818); test: biochemical; assay type: binding; details: for Fluorescence competitive binding assay, fluorescence intensity: OBP3, three replicate columns
Method in brief: as §1

S. furcifera adults = test: Y-tube olfactometer behavioral trials; assay type: in vivo, Sogatella furcifera; details: odorant 50 µL/L vs hexane; adults
Method in brief: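 Single S. furcifera adults (2 days post-emergence, starved 0.5 h) chose between odorant (100 µL of 50 µL/L on filter paper) and hexane control in a glass Y-tube, charcoal-filtered humidified air 300 mL/min per arm, 25 ± 1 °C, 50% RH. Choice scored if insect passed half an arm and stayed >1 min within 10 min; 45 insects per compound, chi-squared test.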

Sequence of SfurOBP3 (V5T818 entry or part of it): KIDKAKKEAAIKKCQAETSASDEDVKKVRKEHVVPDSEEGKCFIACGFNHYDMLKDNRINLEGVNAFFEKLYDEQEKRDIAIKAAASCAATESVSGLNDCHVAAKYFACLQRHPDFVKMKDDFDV
Sequence of SfurOBP1 (V5T8N5 entry or part of it): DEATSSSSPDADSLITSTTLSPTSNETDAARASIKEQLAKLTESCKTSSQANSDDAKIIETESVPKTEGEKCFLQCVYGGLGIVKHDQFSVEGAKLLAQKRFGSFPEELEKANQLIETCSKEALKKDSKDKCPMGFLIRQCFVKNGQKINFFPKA
Sequence of SfurOBP11 (V5T6E3 entry or part of it): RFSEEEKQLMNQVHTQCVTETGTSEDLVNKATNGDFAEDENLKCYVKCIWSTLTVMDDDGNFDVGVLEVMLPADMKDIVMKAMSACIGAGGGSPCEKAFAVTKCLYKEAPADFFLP
Sequence of SfurOBP2 (V5T759 entry or part of it): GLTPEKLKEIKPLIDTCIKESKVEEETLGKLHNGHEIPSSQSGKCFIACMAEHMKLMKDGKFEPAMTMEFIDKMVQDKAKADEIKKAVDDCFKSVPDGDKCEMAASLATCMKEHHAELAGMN

Fluorescence competitive binding assay, fluorescence intensity (SfurOBP1; ligand concentration 2 (μM)): 6522 and 6473 and 6498 | Fluorescence competitive binding assay, fluorescence intensity (SfurOBP1; ligand concentration 4 (μM)): 5655 and 6432 and 6908 | Fluorescence competitive binding assay, fluorescence intensity (SfurOBP1; ligand concentration 6 (μM)): 8453 and 7604 and 7714 | Fluorescence competitive binding assay, fluorescence intensity (SfurOBP1; ligand concentration 8 (μM)): 8297 and 7919 and 6967 | Fluorescence competitive binding assay, fluorescence intensity (SfurOBP1; ligand concentration 10 (μM)): 6386 and 8717 and 6918 | Fluorescence competitive binding assay, fluorescence intensity (SfurOBP1; ligand concentration 12 (μM)): 6193 and 7108 and 6694 | Fluorescence competitive binding assay, fluorescence intensity (SfurOBP1; ligand concentration 14 (μM)): 6199 and 6820 and 8443 | Fluorescence competitive binding assay, fluorescence intensity (SfurOBP1; ligand concentration 16 (μM)): 5457 and 5916 and 5787 | Fluorescence competitive binding assay, fluorescence intensity (SfurOBP1; ligand concentration 18 (μM)): 6097 and 9706 and 8104 | Fluorescence competitive binding assay, fluorescence intensity (SfurOBP1; ligand concentration 20 (μM)): 6801 and 6290 and 6295 | IC50 (SfurOBP1; SfurOBP1, protein and 1-NPN both 2.0 µM, competitor 2-20 µM, read-out: IC50): > 20 µM | IC50 (SfurOBP2; SfurOBP2, protein and 1-NPN both 2.0 µM, competitor 2-20 µM, read-out: IC50): > 20 µM | Fluorescence competitive binding assay, OBP2 (raw fluorescence reading) (SfurOBP2; ligand concentration 2 (unit not given), replicate column 1 of 3): 23899 | Fluorescence competitive binding assay, OBP2 (raw fluorescence reading) (SfurOBP2; ligand concentration 2 (unit not given), replicate column 2 of 3): 21462 | Fluorescence competitive binding assay, OBP2 (raw fluorescence reading) (SfurOBP2; ligand concentration 2 (unit not given), replicate column 3 of 3): 22264 | Fluorescence competitive binding assay, OBP2 (raw fluorescence reading) (SfurOBP2; ligand concentration 4 (unit not given), replicate column 1 of 3): 25374 | Fluorescence competitive binding assay, OBP2 (raw fluorescence reading) (SfurOBP2; ligand concentration 4 (unit not given), replicate column 2 of 3): 25147 | Fluorescence competitive binding assay, OBP2 (raw fluorescence reading) (SfurOBP2; ligand concentration 4 (unit not given), replicate column 3 of 3): 24357 | Fluorescence competitive binding assay, OBP2 (raw fluorescence reading) (SfurOBP2; ligand concentration 6 (unit not given), replicate column 1 of 3): 25139 | Fluorescence competitive binding assay, OBP2 (raw fluorescence reading) (SfurOBP2; ligand concentration 6 (unit not given), replicate column 2 of 3): 24429 | Fluorescence competitive binding assay, OBP2 (raw fluorescence reading) (SfurOBP2; ligand concentration 6 (unit not given), replicate column 3 of 3): 24096 | Fluorescence competitive binding assay, OBP2 (raw fluorescence reading) (SfurOBP2; ligand concentration 8 (unit not given), replicate column 1 of 3): 22380 | Fluorescence competitive binding assay, OBP2 (raw fluorescence reading) (SfurOBP2; ligand concentration 8 (unit not given), replicate column 2 of 3): 22288 | Fluorescence competitive binding assay, OBP2 (raw fluorescence reading) (SfurOBP2; ligand concentration 8 (unit not given), replicate column 3 of 3): 21248 | Fluorescence competitive binding assay, OBP2 (raw fluorescence reading) (SfurOBP2; ligand concentration 10 (unit not given), replicate column 1 of 3): 20934 | Fluorescence competitive binding assay, OBP2 (raw fluorescence reading) (SfurOBP2; ligand concentration 10 (unit not given), replicate column 2 of 3): 21198 | Fluorescence competitive binding assay, OBP2 (raw fluorescence reading) (SfurOBP2; ligand concentration 10 (unit not given), replicate column 3 of 3): 20778 | Fluorescence competitive binding assay, OBP2 (raw fluorescence reading) (SfurOBP2; ligand concentration 12 (unit not given), replicate column 1 of 3): 19074 | Fluorescence competitive binding assay, OBP2 (raw fluorescence reading) (SfurOBP2; ligand concentration 12 (unit not given), replicate column 2 of 3): 19350 | Fluorescence competitive binding assay, OBP2 (raw fluorescence reading) (SfurOBP2; ligand concentration 12 (unit not given), replicate column 3 of 3): 18397 | Fluorescence competitive binding assay, OBP2 (raw fluorescence reading) (SfurOBP2; ligand concentration 14 (unit not given), replicate column 1 of 3): 16875 | Fluorescence competitive binding assay, OBP2 (raw fluorescence reading) (SfurOBP2; ligand concentration 14 (unit not given), replicate column 2 of 3): 19948 | Fluorescence competitive binding assay, OBP2 (raw fluorescence reading) (SfurOBP2; ligand concentration 14 (unit not given), replicate column 3 of 3): 17641 | Fluorescence competitive binding assay, OBP2 (raw fluorescence reading) (SfurOBP2; ligand concentration 16 (unit not given), replicate column 1 of 3): 16016 | Fluorescence competitive binding assay, OBP2 (raw fluorescence reading) (SfurOBP2; ligand concentration 16 (unit not given), replicate column 2 of 3): 16681 | Fluorescence competitive binding assay, OBP2 (raw fluorescence reading) (SfurOBP2; ligand concentration 16 (unit not given), replicate column 3 of 3): 14367 | Fluorescence competitive binding assay, OBP2 (raw fluorescence reading) (SfurOBP2; ligand concentration 18 (unit not given), replicate column 1 of 3): 17119 | Fluorescence competitive binding assay, OBP2 (raw fluorescence reading) (SfurOBP2; ligand concentration 18 (unit not given), replicate column 2 of 3): 16819 | Fluorescence competitive binding assay, OBP2 (raw fluorescence reading) (SfurOBP2; ligand concentration 18 (unit not given), replicate column 3 of 3): 15979 | Fluorescence competitive binding assay, OBP2 (raw fluorescence reading) (SfurOBP2; ligand concentration 20 (unit not given), replicate column 1 of 3): 16047 | Fluorescence competitive binding assay, OBP2 (raw fluorescence reading) (SfurOBP2; ligand concentration 20 (unit not given), replicate column 2 of 3): 15694 | Fluorescence competitive binding assay, OBP2 (raw fluorescence reading) (SfurOBP2; ligand concentration 20 (unit not given), replicate column 3 of 3): 13725 | IC50 (SfurOBP11; SfurOBP11, protein and 1-NPN both 2.0 µM, competitor 2-20 µM, read-out: IC50): > 20 µM | Fluorescence intensity, fluorescence competitive binding assay, OBP11 (SfurOBP11; ligand concentration 2, replicate 1): 37643 | Fluorescence intensity, fluorescence competitive binding assay, OBP11 (SfurOBP11; ligand concentration 2, replicate 2): 35290 | Fluorescence intensity, fluorescence competitive binding assay, OBP11 (SfurOBP11; ligand concentration 2, replicate 3): 44360 | Fluorescence intensity, fluorescence competitive binding assay, OBP11 (SfurOBP11; ligand concentration 4, replicate 1): 35859 | Fluorescence intensity, fluorescence competitive binding assay, OBP11 (SfurOBP11; ligand concentration 4, replicate 2): 39342 | Fluorescence intensity, fluorescence competitive binding assay, OBP11 (SfurOBP11; ligand concentration 4, replicate 3): 34938 | Fluorescence intensity, fluorescence competitive binding assay, OBP11 (SfurOBP11; ligand concentration 6, replicate 1): 34140 | Fluorescence intensity, fluorescence competitive binding assay, OBP11 (SfurOBP11; ligand concentration 6, replicate 2): 38169 | Fluorescence intensity, fluorescence competitive binding assay, OBP11 (SfurOBP11; ligand concentration 6, replicate 3): 36155 | Fluorescence intensity, fluorescence competitive binding assay, OBP11 (SfurOBP11; ligand concentration 8, replicate 1): 32705 | Fluorescence intensity, fluorescence competitive binding assay, OBP11 (SfurOBP11; ligand concentration 8, replicate 2): 34472 | Fluorescence intensity, fluorescence competitive binding assay, OBP11 (SfurOBP11; ligand concentration 8, replicate 3): 34378 | Fluorescence intensity, fluorescence competitive binding assay, OBP11 (SfurOBP11; ligand concentration 10, replicate 1): 32486 | Fluorescence intensity, fluorescence competitive binding assay, OBP11 (SfurOBP11; ligand concentration 10, replicate 2): 33152 | Fluorescence intensity, fluorescence competitive binding assay, OBP11 (SfurOBP11; ligand concentration 10, replicate 3): 33818 | Fluorescence intensity, fluorescence competitive binding assay, OBP11 (SfurOBP11; ligand concentration 12, replicate 1): 28113 | Fluorescence intensity, fluorescence competitive binding assay, OBP11 (SfurOBP11; ligand concentration 12, replicate 2): 29890 | Fluorescence intensity, fluorescence competitive binding assay, OBP11 (SfurOBP11; ligand concentration 12, replicate 3): 30957 | Fluorescence intensity, fluorescence competitive binding assay, OBP11 (SfurOBP11; ligand concentration 14, replicate 1): 27880 | Fluorescence intensity, fluorescence competitive binding assay, OBP11 (SfurOBP11; ligand concentration 14, replicate 2): 28227 | Fluorescence intensity, fluorescence competitive binding assay, OBP11 (SfurOBP11; ligand concentration 14, replicate 3): 28574 | Fluorescence intensity, fluorescence competitive binding assay, OBP11 (SfurOBP11; ligand concentration 16, replicate 1): 24059 | Fluorescence intensity, fluorescence competitive binding assay, OBP11 (SfurOBP11; ligand concentration 16, replicate 2): 25490 | Fluorescence intensity, fluorescence competitive binding assay, OBP11 (SfurOBP11; ligand concentration 16, replicate 3): 25182 | Fluorescence intensity, fluorescence competitive binding assay, OBP11 (SfurOBP11; ligand concentration 18, replicate 1): 30643 | Fluorescence intensity, fluorescence competitive binding assay, OBP11 (SfurOBP11; ligand concentration 18, replicate 2): 29725 | Fluorescence intensity, fluorescence competitive binding assay, OBP11 (SfurOBP11; ligand concentration 18, replicate 3): 31591 | Fluorescence intensity, fluorescence competitive binding assay, OBP11 (SfurOBP11; ligand concentration 20, replicate 1): 30015 | Fluorescence intensity, fluorescence competitive binding assay, OBP11 (SfurOBP11; ligand concentration 20, replicate 2): 28576 | Fluorescence intensity, fluorescence competitive binding assay, OBP11 (SfurOBP11; ligand concentration 20, replicate 3): 24669 | Fluorescence competitive binding assay, fluorescence intensity (SfurOBP3; ligand concentration 2): 69777 and 64977 and 64069 | Fluorescence competitive binding assay, fluorescence intensity (SfurOBP3; ligand concentration 4): 69897 and 66654 and 59281 | Fluorescence competitive binding assay, fluorescence intensity (SfurOBP3; ligand concentration 6): 72805 and 63593 and 63408 | Fluorescence competitive binding assay, fluorescence intensity (SfurOBP3; ligand concentration 8): 68908 and 64822 and 61456 | Fluorescence competitive binding assay, fluorescence intensity (SfurOBP3; ligand concentration 10): 63843 and 54968 and 55110 | Fluorescence competitive binding assay, fluorescence intensity (SfurOBP3; ligand concentration 12): 59021 and 51372 and 52724 | Fluorescence competitive binding assay, fluorescence intensity (SfurOBP3; ligand concentration 14): 52703 and 46147 and 50940 | Fluorescence competitive binding assay, fluorescence intensity (SfurOBP3; ligand concentration 16): 47036 and 45518 and 44907 | Fluorescence competitive binding assay, fluorescence intensity (SfurOBP3; ligand concentration 18): 49989 and 48773 and 43710 | Fluorescence competitive binding assay, fluorescence intensity (SfurOBP3; ligand concentration 20): 40319 and 40656 and 42300 | IC50 (SfurOBP3; SfurOBP3, protein and 1-NPN both 2.0 µM, competitor 2-20 µM, read-out: IC50): > 20 µM
SMILES: CCCCCCC=CCO [2-nonen-1-ol]
number of insects choosing hexane arm (S. furcifera adults): 12 | number of insects choosing volatilies arm (S. furcifera adults): 18 | number of insects failed (no choice) (S. furcifera adults): 10

Reference: PMC6409085, “Three odorant-binding proteins are involved in the behavioral response of Sogatella furcifera to rice plant volatiles” (PeerJ, 2019)
